In ChEMBL document CHEMBL1671662, “In vitro activities of telavancin and six comparator agents against anaerobic bacterial isolates” (2009):
Values after ≈ are worked out from the molar mass of the structure shown.

Columns and labels:
[1] = tested on: Clostridioides difficile; test: Antibacterial activity against Clostridium difficile by CLSI M11-A6 agar dilution method; format: functional
[2] = tested on: Clostridium hathewayi; test: Antibacterial activity against Clostridium hathewayi by CLSI M11-A6 agar dilution method; format: functional; details: Hungatella hathewayi
[3] = tested on: Clostridium perfringens; test: Antibacterial activity against Clostridium perfringens by CLSI M11-A6 agar dilution method; format: functional
[4] = tested on: Clostridium butyricum; test: Antibacterial activity against Clostridium butyricum by CLSI M11-A6 agar dilution method; format: functional
[5] = tested on: Clostridium celerecrescens; test: Antibacterial activity against Clostridium celerecrescens by CLSI M11-A6 agar dilution method; format: functional; details: Lacrimispora celerecrescens
[6] = tested on: Clostridium leptum; test: Antibacterial activity against Clostridium leptum by CLSI M11-A6 agar dilution method; format: functional
[7] = tested on: Flavonifractor plautii; test: Antibacterial activity against Clostridium orbiscindens by CLSI M11-A6 agar dilution method; format: functional
[8] = tested on: Clostridium scindens; test: Antibacterial activity against Clostridium scindens by CLSI M11-A6 agar dilution method; format: functional
[9] = tested on: Clostridium spiroforme; test: Antibacterial activity against Clostridium spiroforme by CLSI M11-A6 agar dilution method; format: functional; details: Thomasclavelia spiroformis
[10] = tested on: Clostridium sporogenes; test: Antibacterial activity against Clostridium sporogenes by CLSI M11-A6 agar dilution method; format: functional
[11] = tested on: Clostridium tertium; test: Antibacterial activity against Clostridium tertium by CLSI M11-A6 agar dilution method; format: functional
[12] = tested on: Clostridium sp.; test: Antibacterial activity against Clostridium sp. by CLSI M11-A6 agar dilution method; format: functional
[13] = tested on: Bifidobacterium adolescentis; test: Antibacterial activity against Bifidobacterium adolescentis by CLSI M11-A6 agar dilution method; format: functional
[14] = tested on: Bifidobacterium breve; test: Antibacterial activity against Bifidobacterium breve by CLSI M11-A6 agar dilution method; format: functional
[15] = Antibacterial activity against Bifidobacterium infantis by CLSI M11-A6 agar dilution method; format: functional, Bifidobacterium longum subsp. infantis; details: Bifidobacterium longum
[16] = tested on: Bifidobacterium longum; test: Antibacterial activity against Bifidobacterium longum by CLSI M11-A6 agar dilution method; format: functional
[17] = tested on: Catenibacterium mitsuokai; test: Antibacterial activity against Catenibacterium mitsuokai by CLSI M11-A6 agar dilution method; format: functional
[18] = tested on: Collinsella aerofaciens; test: Antibacterial activity against Colinsella aerofaciens by CLSI M11-A6 agar dilution method; format: functional
[19] = tested on: Coprobacillus cateniformis; test: Antibacterial activity against Coprobacillus cateniformis by CLSI M11-A6 agar dilution method; format: functional
[20] = tested on: Coriobacterium; test: Antibacterial activity against […] by CLSI M11-A6 agar dilution method; format: functional
[21] = tested on: Eggerthella lenta; test: Antibacterial activity against Eggerthella lenta by CLSI M11-A6 agar dilution method; format: functional
[22] = tested on: Propionibacterium propionicum; test: Antibacterial activity against Propionibacterium propionicus by CLSI M11-A6 agar dilution method; format: functional; details: Arachnia propionica
[23] = tested on: Ruminococcus obeum; test: Antibacterial activity against Ruminococcus obeum by CLSI M11-A6 agar dilution method; format: functional; details: Blautia obeum
[24] = tested on: Ruminococcus flavefaciens; test: Antibacterial activity against Ruminococcus flavefaciens by CLSI M11-A6 agar dilution method; format: functional
[25] = tested on: Blautia producta; test: Antibacterial activity against Ruminococcus productus by CLSI M11-A6 agar dilution method; format: functional
[26] = tested on: Anaerococcus tetradius; test: Antibacterial activity against Anaerococcus tetradius by CLSI M11-A6 agar dilution method; format: functional
[27] = tested on: Finegoldia magna; test: Antibacterial activity against Finegoldia magna by CLSI M11-A6 agar dilution method; format: functional
[28] = tested on: Peptoniphilus asaccharolyticus; test: Antibacterial activity against Peptoniphilus asaccharolyticus by CLSI M11-A6 agar dilution method; format: functional
[29] = tested on: Peptostreptococcus anaerobius; test: Antibacterial activity against Peptostreptococcus anaerobius by CLSI M11-A6 agar dilution method; format: functional
[30] = tested on: Streptococcus constellatus; test: Antibacterial activity against Streptococcus constellatus by CLSI M11-A6 agar dilution method; format: functional
[31] = tested on: Streptococcus intermedius; test: Antibacterial activity against Streptococcus intermedius by CLSI M11-A6 agar dilution method; format: functional
[32] = tested on: Parabacteroides merdae; test: Antibacterial activity against Parabacteroides merdae by CLSI M11-A6 agar dilution method; format: functional
[33] = tested on: Bacteroides fragilis; test: Antibacterial activity against Bacteroides fragilis by CLSI M11-A6 agar dilution method; format: functional
[34] = tested on: Bacteroides ovatus; test: Antibacterial activity against Bacteroides ovatus by CLSI M11-A6 agar dilution method; format: functional
[35] = tested on: Odoribacter splanchnicus; test: Antibacterial activity against Bacteroides splanchnicus by CLSI M11-A6 agar dilution method; format: functional
[36] = tested on: Bilophila wadsworthia; test: Antibacterial activity against Bilophila wadsworthia by CLSI M11-A6 agar dilution method; format: functional
[37] = tested on: Fusobacterium varium; test: Antibacterial activity against Fusobacterium varium by CLSI M11-A6 agar dilution method; format: functional
[38] = tested on: Prevotella buccae; test: Antibacterial activity against Prevotella buccae by CLSI M11-A6 agar dilution method; format: functional; details: Segatella buccae
[39] = tested on: Prevotella denticola; test: Antibacterial activity against Prevotella P denticola by CLSI M11-A6 agar dilution method; format: functional
[40] = tested on: Prevotella intermedia; test: Antibacterial activity against Prevotella intermedia by CLSI M11-A6 agar dilution method; format: functional
[41] = tested on: Prevotella melaninogenica; test: Antibacterial activity against Prevotella melaninogenica by CLSI M11-A6 agar dilution method; format: functional
[42] = tested on: Hoylesella oralis; test: Antibacterial activity against Prevotella oralis by CLSI M11-A6 agar dilution method; format: functional
[43] = tested on: Sutterella wadsworthensis; test: Antibacterial activity against Sutterella wadsworthensis by CLSI M11-A6 agar dilution method; format: functional

## CC(=O)NC[C@H]1CN(c2ccc(N3CCOCC3)c(F)c2)C(=O)O1 [LINEZOLID]
[1]
  MIC50: 2 µg/mL (≈ 5.93 µM)
  MIC90: 16 µg/mL (≈ 47.4 µM)
[2]
  MIC50: 2 µg/mL (≈ 5.93 µM)
  MIC90: 4 µg/mL (≈ 11.9 µM)
[3]
  MIC50: 2 µg/mL (≈ 5.93 µM)
  MIC90: 2 µg/mL (≈ 5.93 µM)
[4]
  MIC50: 2 µg/mL (≈ 5.93 µM)
  MIC90: 4 µg/mL (≈ 11.9 µM)
[5]
  MIC50: 2 µg/mL (≈ 5.93 µM)
  MIC90: 4 µg/mL (≈ 11.9 µM)
[6]
  MIC50: 2 µg/mL (≈ 5.93 µM)
  MIC90: 4 µg/mL (≈ 11.9 µM)
[7]
  MIC50: 2 µg/mL (≈ 5.93 µM)
  MIC90: 4 µg/mL (≈ 11.9 µM)
[8]
  MIC50: 2 µg/mL (≈ 5.93 µM)
  MIC90: 4 µg/mL (≈ 11.9 µM)
[9]
  MIC50: 2 µg/mL (≈ 5.93 µM)
  MIC90: 4 µg/mL (≈ 11.9 µM)
[10]
  MIC50: 2 µg/mL (≈ 5.93 µM)
  MIC90: 4 µg/mL (≈ 11.9 µM)
[11]
  MIC50: 2 µg/mL (≈ 5.93 µM)
  MIC90: 4 µg/mL (≈ 11.9 µM)
[12]
  MIC50: 2 µg/mL (≈ 5.93 µM)
  MIC90: 4 µg/mL (≈ 11.9 µM)
[13]
  MIC50: 1 µg/mL (≈ 2.96 µM)
  MIC90: 8 µg/mL (≈ 23.7 µM)
[14]
  MIC50: 1 µg/mL (≈ 2.96 µM)
  MIC90: 8 µg/mL (≈ 23.7 µM)
[15]
  MIC90: 8 µg/mL (≈ 23.7 µM)
[16]
  MIC50: 1 µg/mL (≈ 2.96 µM)
  MIC90: 8 µg/mL (≈ 23.7 µM)
[17]
  MIC50: 1 µg/mL (≈ 2.96 µM)
  MIC90: 8 µg/mL (≈ 23.7 µM)
[18]
  MIC50: 1 µg/mL (≈ 2.96 µM)
  MIC90: 8 µg/mL (≈ 23.7 µM)
[19]
  MIC50: 1 µg/mL (≈ 2.96 µM)
  MIC90: 8 µg/mL (≈ 23.7 µM)
[20]
  MIC50: 1 µg/mL (≈ 2.96 µM)
  MIC90: 8 µg/mL (≈ 23.7 µM)
[21]
  MIC50: 1 µg/mL (≈ 2.96 µM)
  MIC90: 8 µg/mL (≈ 23.7 µM)
[22]
  MIC50: 1 µg/mL (≈ 2.96 µM)
  MIC90: 8 µg/mL (≈ 23.7 µM)
[23]
  MIC: 1 µg/mL (≈ 2.96 µM)
  MIC50: 1 µg/mL (≈ 2.96 µM)
  MIC90: 2 µg/mL (≈ 5.93 µM)
[24]
  MIC50: 2 µg/mL (≈ 5.93 µM)
  MIC90: 4 µg/mL (≈ 11.9 µM)
[25]
  MIC50: 2 µg/mL (≈ 5.93 µM)
  MIC90: 4 µg/mL (≈ 11.9 µM)
[26]
  MIC50: 1 µg/mL (≈ 2.96 µM)
  MIC90: 2 µg/mL (≈ 5.93 µM)
[27]
  MIC50: 1 µg/mL (≈ 2.96 µM)
  MIC90: 2 µg/mL (≈ 5.93 µM)
[28]
  MIC50: 1 µg/mL (≈ 2.96 µM)
  MIC90: 2 µg/mL (≈ 5.93 µM)
[29]
  MIC50: 1 µg/mL (≈ 2.96 µM)
  MIC90: 2 µg/mL (≈ 5.93 µM)
[30]
  MIC50: 2 µg/mL (≈ 5.93 µM)
  MIC90: 4 µg/mL (≈ 11.9 µM)
[31]
  MIC50: 2 µg/mL (≈ 5.93 µM)
  MIC90: 4 µg/mL (≈ 11.9 µM)
[32]
  MIC50: 4 µg/mL (≈ 11.9 µM)
  MIC90: 4 µg/mL (≈ 11.9 µM)
[33]
  MIC: 4 µg/mL (≈ 11.9 µM)
  MIC50: 4 µg/mL (≈ 11.9 µM)
  MIC90: 8 µg/mL (≈ 23.7 µM)
[34]
  MIC50: 4 µg/mL (≈ 11.9 µM)
  MIC90: 4 µg/mL (≈ 11.9 µM)
[35]
  MIC: 2 µg/mL (≈ 5.93 µM)
  MIC50: 2 µg/mL (≈ 5.93 µM)
  MIC90: 4 µg/mL (≈ 11.9 µM)
[36]
  MIC50: 4 µg/mL (≈ 11.9 µM)
  MIC90: 16 µg/mL (≈ 47.4 µM)
[37]
  MIC50: 1 µg/mL (≈ 2.96 µM)
  MIC90: 1 µg/mL (≈ 2.96 µM)
[38]
  MIC50: 2 µg/mL (≈ 5.93 µM)
  MIC90: 2 µg/mL (≈ 5.93 µM)
[39]
  MIC50: 2 µg/mL (≈ 5.93 µM)
  MIC90: 2 µg/mL (≈ 5.93 µM)
[40]
  MIC50: 2 µg/mL (≈ 5.93 µM)
  MIC90: 2 µg/mL (≈ 5.93 µM)
[41]
  MIC50: 2 µg/mL (≈ 5.93 µM)
  MIC90: 2 µg/mL (≈ 5.93 µM)
[42]
  MIC50: 2 µg/mL (≈ 5.93 µM)
  MIC90: 2 µg/mL (≈ 5.93 µM)
[43]
  MIC: > 128 µg/mL
  MIC50: > 128 µg/mL
  MIC90: > 128 µg/mL
